Laboratory results reported in patent EP0465716A1, “Optically active thiazetoquino-line-3-carboxylic acid compound, method for preparation thereof, and a pharmaceutical composition comprising the same” (priority 1990, dated 1992).
In brackets after ≈: the same amount, converted by molar mass.

Legend:
[1] = tested on: Klebsiella pneumoniae PCI-602; test: MIC, twofold agar dilution method (standard laboratory strain); format: cell-based; conditions: PCI602; Klebsiella pneumoniae PCI-602, Gram -; 10^6 cfu/ml; 18 hrs at 37 °C; read-out: MIC
Procedure: (§1) Minimum inhibitory concentrations (MIC) of test compounds were determined by the twofold agar dilution method (Chemotherapy, 29(1), 76(1981)). Overnight cultures in Mueller-Hinton broth were suspended by buffered saline gelatin. One loopful of the bacterial suspension (10⁶ or 10⁸ colony-forming units/ml) was incubated onto the plates containing test compounds. The plates were incubated for 18 hrs at 37 °C. The MIC was defined by the lowest concentration of the drug that inhibited visible growth of bacteria.

[2] = tested on: Male mice of ddY strain; test: Convulsion inducing activity in combination with fenbufen; conditions: thirty minutes after fenbufen 100 mg/kg orally
Procedure: Male mice of ddY strain, 5 weeks old, were used. Fenbufen suspended in 0.5 % carboxymethylcellulose was administered orally at a dose of 100 mg/kg. After thirty minutes, test compounds suspended in 0.5 % carboxymethylcellulose were injected intraperitoneally (i.p.) at a dose of 100 mg/kg or 300 mg/kg.

[3] = tested on: Staphylococcuss aureus HPC 292; test: MIC, twofold agar dilution method (clinically isolated strain); format: cell-based; conditions: Staphylococcuss aureus HPC 292, Gram +; 10^6 cfu/ml; 18 hrs at 37 °C
Procedure: as §1, with “Overnight” for “Minimum inhibitory concentrations (MIC) of test compounds were determined by the twofold agar dilution method (Chemotherapy, 29(1), 76(1981)). Overnight”

[4] = tested on: Enterobacter cloacae HNR 1946; test: as above; format: cell-based; conditions: HNR1946; Enterobacter cloacae HNR 1946, Gram -; 10^6 cfu/ml; 18 hrs at 37 °C
Procedure: as §1, with “Overnight” for “Minimum inhibitory concentrations (MIC) of test compounds were determined by the twofold agar dilution method (Chemotherapy, 29(1), 76(1981)). Overnight”

[5] = tested on: Acinetobacter calcoaceticus HNR 916; test: as above; format: cell-based; conditions: HNR916; Acinetobacter calcoaceticus HNR 916, Gram -; 10^6 cfu/ml; 18 hrs at 37 °C
Procedure: as §1, with “Overnight” for “Minimum inhibitory concentrations (MIC) of test compounds were determined by the twofold agar dilution method (Chemotherapy, 29(1), 76(1981)). Overnight”

[6] = tested on: Enterobacter cloacae HNR 1941; test: as above; format: cell-based; conditions: HNR1941; Enterobacter cloacae HNR 1941, Gram -; 10^6 cfu/ml; 18 hrs at 37 °C
Procedure: as §1, with “Overnight” for “Minimum inhibitory concentrations (MIC) of test compounds were determined by the twofold agar dilution method (Chemotherapy, 29(1), 76(1981)). Overnight”

[7] = tested on: Enterococcus faecalis HPC 984; test: as above; format: cell-based; conditions: HPC984; Enterococcus faecalis HPC 984, Gram +; 10^6 cfu/ml; 18 hrs at 37 °C
Procedure: as §1, with “Overnight” for “Minimum inhibitory concentrations (MIC) of test compounds were determined by the twofold agar dilution method (Chemotherapy, 29(1), 76(1981)). Overnight”

[8] = tested on: Staphylococcuss aureus HPC 308; test: as above; format: cell-based; conditions: Staphylococcuss aureus HPC 308, Gram +; 10^6 cfu/ml; 18 hrs at 37 °C
Procedure: as §1, with “Overnight” for “Minimum inhibitory concentrations (MIC) of test compounds were determined by the twofold agar dilution method (Chemotherapy, 29(1), 76(1981)). Overnight”

[9] = tested on: Enterococcus faecalis HPC 975; test: as above; format: cell-based; conditions: HPC975; Enterococcus faecalis HPC 975, Gram +; 10^6 cfu/ml; 18 hrs at 37 °C
Procedure: as §1, with “Overnight” for “Minimum inhibitory concentrations (MIC) of test compounds were determined by the twofold agar dilution method (Chemotherapy, 29(1), 76(1981)). Overnight”

[10] = tested on: Klebsiella pneumoniae HNR 828; test: as above; format: cell-based; conditions: HNR828; Klebsiella pneumoniae HNR 828, Gram -; 10^6 cfu/ml; 18 hrs at 37 °C
Procedure: as §1, with “Overnight” for “Minimum inhibitory concentrations (MIC) of test compounds were determined by the twofold agar dilution method (Chemotherapy, 29(1), 76(1981)). Overnight”

[11] = tested on: Pseudomonas aeruginosa HNR 1537; test: as above; format: cell-based; conditions: HNR1537; Pseudomonas aeruginosa HNR 1537, Gram -; 10^6 cfu/ml; 18 hrs at 37 °C
Procedure: as §1, with “Overnight” for “Minimum inhibitory concentrations (MIC) of test compounds were determined by the twofold agar dilution method (Chemotherapy, 29(1), 76(1981)). Overnight”

[12] = tested on: Serratia marcescens HNR 1544; test: as above; format: cell-based; conditions: HNR1544; Serratia marcescens HNR 1544, Gram -; 10^6 cfu/ml; 18 hrs at 37 °C
Procedure: as §1, with “Overnight” for “Minimum inhibitory concentrations (MIC) of test compounds were determined by the twofold agar dilution method (Chemotherapy, 29(1), 76(1981)). Overnight”

[13] = tested on: Enterococcus faecalis HPC 948; test: as above; format: cell-based; conditions: HPC948; Enterococcus faecalis HPC 948, Gram +; 10^6 cfu/ml; 18 hrs at 37 °C
Procedure: as §1, with “Overnight” for “Minimum inhibitory concentrations (MIC) of test compounds were determined by the twofold agar dilution method (Chemotherapy, 29(1), 76(1981)). Overnight”

[14] = tested on: Klebsiella pneumoniae HNR 869; test: as above; format: cell-based; conditions: HNR869; Klebsiella pneumoniae HNR 869, Gram -; 10^6 cfu/ml; 18 hrs at 37 °C
Procedure: as §1, with “Overnight” for “Minimum inhibitory concentrations (MIC) of test compounds were determined by the twofold agar dilution method (Chemotherapy, 29(1), 76(1981)). Overnight”

[15] = tested on: Staphylococcuss aureus HPC 527; test: as above; format: cell-based; conditions: Staphylococcuss aureus HPC 527, Gram +; 10^6 cfu/ml; 18 hrs at 37 °C
Procedure: as §1, with “Overnight” for “Minimum inhibitory concentrations (MIC) of test compounds were determined by the twofold agar dilution method (Chemotherapy, 29(1), 76(1981)). Overnight”

[16] = tested on: Pseudomonas aeruginosa HNR 1489; test: as above; format: cell-based; conditions: HNR1489; Pseudomonas aeruginosa HNR 1489, Gram -; 10^6 cfu/ml; 18 hrs at 37 °C
Procedure: as §1, with “Overnight” for “Minimum inhibitory concentrations (MIC) of test compounds were determined by the twofold agar dilution method (Chemotherapy, 29(1), 76(1981)). Overnight”

[17] = tested on: Enterobacter cloacae HNR 1939; test: as above; format: cell-based; conditions: HNR1939; Enterobacter cloacae HNR 1939, Gram -; 10^6 cfu/ml; 18 hrs at 37 °C
Procedure: as §1, with “Overnight” for “Minimum inhibitory concentrations (MIC) of test compounds were determined by the twofold agar dilution method (Chemotherapy, 29(1), 76(1981)). Overnight”

[18] = tested on: Acinetobacter calcoaceticus HNR 904; test: as above; format: cell-based; conditions: HNR904; Acinetobacter calcoaceticus HNR 904, Gram -; 10^6 cfu/ml; 18 hrs at 37 °C
Procedure: as §1, with “Overnight” for “Minimum inhibitory concentrations (MIC) of test compounds were determined by the twofold agar dilution method (Chemotherapy, 29(1), 76(1981)). Overnight”

[19] = tested on: Serratia marcescens HNR 1767; test: as above; format: cell-based; conditions: HNR1767; Serratia marcescens HNR 1767, Gram -; 10^6 cfu/ml; 18 hrs at 37 °C
Procedure: as §1, with “Overnight” for “Minimum inhibitory concentrations (MIC) of test compounds were determined by the twofold agar dilution method (Chemotherapy, 29(1), 76(1981)). Overnight”

[20] = tested on: Pseudomonas aeruginosa HNR 1472; test: as above; format: cell-based; conditions: HNR1472; Pseudomonas aeruginosa HNR 1472, Gram -; 10^6 cfu/ml; 18 hrs at 37 °C
Procedure: as §1, with “Overnight” for “Minimum inhibitory concentrations (MIC) of test compounds were determined by the twofold agar dilution method (Chemotherapy, 29(1), 76(1981)). Overnight”

[21] = tested on: Acinetobacter calcoaceticus HNR 939; test: as above; format: cell-based; conditions: HNR939; Acinetobacter calcoaceticus HNR 939, Gram -; 10^6 cfu/ml; 18 hrs at 37 °C
Procedure: as §1, with “Overnight” for “Minimum inhibitory concentrations (MIC) of test compounds were determined by the twofold agar dilution method (Chemotherapy, 29(1), 76(1981)). Overnight”

[22] = tested on: Serratia marcescens HNR 1792; test: as above; format: cell-based; conditions: HNR1792; Serratia marcescens HNR 1792, Gram -; 10^6 cfu/ml; 18 hrs at 37 °C
Procedure: as §1, with “Overnight” for “Minimum inhibitory concentrations (MIC) of test compounds were determined by the twofold agar dilution method (Chemotherapy, 29(1), 76(1981)). Overnight”

[23] = tested on: Klebsiella pneumoniae HNR 858; test: as above; format: cell-based; conditions: HNR858; Klebsiella pneumoniae HNR 858, Gram -; 10^6 cfu/ml; 18 hrs at 37 °C
Procedure: as §1, with “Overnight” for “Minimum inhibitory concentrations (MIC) of test compounds were determined by the twofold agar dilution method (Chemotherapy, 29(1), 76(1981)). Overnight”

[24] = tested on: Staphylococuss aureus FDA 209PJC-1; test: MIC, twofold agar dilution method (standard laboratory strain); format: cell-based; conditions: Staphylococuss aureus FDA 209PJC-1, Gram +; 10^6 cfu/ml; 18 hrs at 37 °C
Procedure: as §1, with “Overnight” for “Minimum inhibitory concentrations (MIC) of test compounds were determined by the twofold agar dilution method (Chemotherapy, 29(1), 76(1981)). Overnight”

[25] = tested on: Pseudomonas aeruginosa IFO 3445; test: as above; format: cell-based; conditions: IFO3445; Pseudomonas aeruginosa IFO 3445, Gram -; 10^6 cfu/ml; 18 hrs at 37 °C
Procedure: as §1, with “Overnight” for “Minimum inhibitory concentrations (MIC) of test compounds were determined by the twofold agar dilution method (Chemotherapy, 29(1), 76(1981)). Overnight”

[26] = tested on: Escherichia coli NIHJ JC-2; test: as above; format: cell-based; conditions: NIHJJC2; Escherichia coli NIHJ JC-2, Gram -; 10^6 cfu/ml; 18 hrs at 37 °C
Procedure: as §1, with “Overnight” for “Minimum inhibitory concentrations (MIC) of test compounds were determined by the twofold agar dilution method (Chemotherapy, 29(1), 76(1981)). Overnight”

[27] = tested on: Enterobacter cloacae 963; test: as above; format: cell-based; conditions: Enterobacter cloacae 963, Gram -; 10^6 cfu/ml; 18 hrs at 37 °C
Procedure: as §1, with “Overnight” for “Minimum inhibitory concentrations (MIC) of test compounds were determined by the twofold agar dilution method (Chemotherapy, 29(1), 76(1981)). Overnight”

[28] = tested on: Serratia marcescens IAM 1184; test: as above; format: cell-based; conditions: IAM1184; Serratia marcescens IAM 1184, Gram -; 10^6 cfu/ml; 18 hrs at 37 °C
Procedure: as §1, with “Overnight” for “Minimum inhibitory concentrations (MIC) of test compounds were determined by the twofold agar dilution method (Chemotherapy, 29(1), 76(1981)). Overnight”

MIC [1]: 0.006 µg/mL (≈ 0.0156 µM)
MIC [3]: 1.56 µg/mL (≈ 4.06 µM)
MIC [4]: 0.1 µg/mL (≈ 0.261 µM)
MIC [5]: 0.05 µg/mL (≈ 0.13 µM)
MIC [6]: 0.78 µg/mL (≈ 2.03 µM)
MIC [7]: 0.1 µg/mL (≈ 0.261 µM)
MIC [8]: 0.39 µg/mL (≈ 1.02 µM)
MIC [9]: 1.56 µg/mL (≈ 4.06 µM)
MIC [10]: 0.78 µg/mL (≈ 2.03 µM)
MIC [11]: 1.56 µg/mL (≈ 4.06 µM)
MIC [12]: 0.025 µg/mL (≈ 0.0651 µM)
MIC [13]: 0.39 µg/mL (≈ 1.02 µM)
MIC [14]: 0.2 µg/mL (≈ 0.521 µM)
MIC [15]: 0.025 µg/mL (≈ 0.0651 µM)
MIC [16]: 0.1 µg/mL (≈ 0.261 µM)
MIC [17]: 0.1 µg/mL (≈ 0.261 µM)
MIC [18]: 6.25 µg/mL (≈ 16.3 µM)
MIC [19]: 1.56 µg/mL (≈ 4.06 µM)
MIC [20]: 1.56 µg/mL (≈ 4.06 µM)
MIC [21]: 0.78 µg/mL (≈ 2.03 µM)
MIC [22]: 0.39 µg/mL (≈ 1.02 µM)
MIC [23]: 0.1 µg/mL (≈ 0.261 µM)
MIC [24]: 0.025 µg/mL (≈ 0.0651 µM)
MIC [25]: 0.05 µg/mL (≈ 0.13 µM)
MIC [26]: 0.012 µg/mL (≈ 0.0313 µM)
MIC [27]: 0.012 µg/mL (≈ 0.0313 µM)
MIC [28]: 0.025 µg/mL (≈ 0.0651 µM)
SMILES: CC1Sc2c(C(=O)O)c(=O)c3cc(F)c(N4CC[C@H](N)C4)c(Cl)c3n21 (single isomer, unassigned) [Example 15]
Number of convulsion induced / Number of animals ([2]; 100 mg/kg (i.p.)): 0 / 6
Number of convulsion induced / Number of animals ([2]; 300 mg/kg (i.p.)): 0 / 6
